“Also recorded” adds a separate entry of the source.
Legend:
human CYP2A6 [1] = biological target: T1, human CYP2A6 (Homo sapiens, UniProt P11509); assay: Coumarin metabolism assay
T1 sequence (P11509 with tags, fused parts or gaps limits assumed): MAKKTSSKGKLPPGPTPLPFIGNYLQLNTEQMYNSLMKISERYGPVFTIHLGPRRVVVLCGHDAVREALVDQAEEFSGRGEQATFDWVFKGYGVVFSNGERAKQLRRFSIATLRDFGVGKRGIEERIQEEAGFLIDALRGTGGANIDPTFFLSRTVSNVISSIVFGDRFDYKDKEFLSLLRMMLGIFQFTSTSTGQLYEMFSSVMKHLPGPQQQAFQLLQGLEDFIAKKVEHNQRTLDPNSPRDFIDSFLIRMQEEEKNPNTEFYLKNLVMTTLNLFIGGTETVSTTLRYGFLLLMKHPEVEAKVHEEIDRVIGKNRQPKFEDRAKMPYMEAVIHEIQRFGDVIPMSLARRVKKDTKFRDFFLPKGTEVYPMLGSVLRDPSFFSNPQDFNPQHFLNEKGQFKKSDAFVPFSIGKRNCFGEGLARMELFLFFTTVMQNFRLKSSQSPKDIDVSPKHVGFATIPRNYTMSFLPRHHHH

CYP2A6 / CYP2A13 [2] = assay: Coumarin metabolism assay; details: human, pH 7.4, probe coumarin (7-hydroxylation), Selectivity Ki (2A6)/ Ki (2A13), ratio of the CYP2A6 value to the CYP2A13 value
human CYP2A13 [3] = biological target: T2, human CYP2A13 (Homo sapiens, UniProt Q16696); assay: Coumarin metabolism assay; details: for Mode of inhibition 2A13 / α (mixed inhibition) 2A13: coumarin substrate; for α (mixed inhibition) 2A13: mixed model inhibition
T2 sequence (Q16696 with tags, fused parts or gaps limits assumed): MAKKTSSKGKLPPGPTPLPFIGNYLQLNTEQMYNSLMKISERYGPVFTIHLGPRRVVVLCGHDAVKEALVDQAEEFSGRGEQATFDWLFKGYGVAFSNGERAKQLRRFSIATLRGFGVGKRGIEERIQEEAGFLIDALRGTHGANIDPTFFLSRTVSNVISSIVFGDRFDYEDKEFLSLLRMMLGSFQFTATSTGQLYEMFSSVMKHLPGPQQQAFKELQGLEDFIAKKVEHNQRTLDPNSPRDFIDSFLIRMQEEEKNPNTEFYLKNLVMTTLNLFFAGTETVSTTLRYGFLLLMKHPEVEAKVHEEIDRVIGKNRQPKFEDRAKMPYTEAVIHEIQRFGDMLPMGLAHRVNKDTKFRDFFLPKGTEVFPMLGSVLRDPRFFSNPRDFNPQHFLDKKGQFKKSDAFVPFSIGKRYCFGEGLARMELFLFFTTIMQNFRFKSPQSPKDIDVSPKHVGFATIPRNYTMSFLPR

CYP2A6 / CYP2A13 [4] = assay: Spectral ligand binding assay; design: species or system human; details: human, Selectivity Kd (2A6)/ Kd (2A13), ratio of the CYP2A6 value to the CYP2A13 value
human CYP2A13 [5] = biological target: T3, human CYP2A13 (Homo sapiens, UniProt Q16696); assay: Spectral ligand binding assay; details: for Kd: Kd 2A13, spectral titration, ≥ = minimal Kd value; for Spectral shift type 2A13: UV/Vis difference spectra
T3 sequence (Q16696 25-494): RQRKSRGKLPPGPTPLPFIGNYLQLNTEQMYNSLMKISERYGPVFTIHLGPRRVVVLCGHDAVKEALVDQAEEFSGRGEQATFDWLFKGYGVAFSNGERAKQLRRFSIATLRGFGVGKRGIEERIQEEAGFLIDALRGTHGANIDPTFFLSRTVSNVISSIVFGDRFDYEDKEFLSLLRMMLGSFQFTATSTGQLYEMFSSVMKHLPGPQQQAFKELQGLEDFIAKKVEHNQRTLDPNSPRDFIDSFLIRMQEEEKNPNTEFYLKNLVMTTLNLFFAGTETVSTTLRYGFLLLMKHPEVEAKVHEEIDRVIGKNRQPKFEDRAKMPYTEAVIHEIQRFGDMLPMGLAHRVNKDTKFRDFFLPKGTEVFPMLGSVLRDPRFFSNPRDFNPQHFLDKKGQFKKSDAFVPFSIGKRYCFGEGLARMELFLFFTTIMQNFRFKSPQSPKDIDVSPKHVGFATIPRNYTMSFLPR

human CYP2A13 [6] = assay: Spectral ligand binding assay; details: ratio of the CYP2A6 value to the CYP2A13 value
human CYP2A6 [7] = biological target: T1, human CYP2A6; assay: Spectral ligand binding assay; details: for Kd: Kd 2A6, spectral titration, ≥ = minimal Kd value; for Spectral shift type 2A6: UV/Vis difference spectra
human CYP2A13 [8] = assay: Coumarin metabolism assay; details: ratio of the CYP2A6 value to the CYP2A13 value
NNK-induced tumors = details: rats; reduced from 70% without inhibitor; cited from earlier work

Row | Compound | Ki (human CYP2A6 [1]) [µM] | selectivity ratio at 10 min (CYP2A6 / CYP2A13 [2]) | Ki (human CYP2A13 [3]) [µM] | selectivity ratio (CYP2A6 / CYP2A13 [4]) | Kd (human CYP2A13 [5]) [µM] | Spectral shift type 2A13 (human CYP2A13 [5]) | Selectivity Kd (2A6)/ Kd (2A13) (human CYP2A13 [6]) | Kd (human CYP2A6 [7]) [µM] | Spectral shift type 2A6 (human CYP2A6 [7]) | Selectivity Ki (2A6)/ Ki (2A13) (human CYP2A13 [8]) | Mode of inhibition 2A6 (human CYP2A6 [1]; coumarin substrate) | Mode of inhibition 2A13 (human CYP2A13 [3]) | α (mixed inhibition) 2A13 (human CYP2A13 [3]) | α (mixed inhibition) 2A6 (human CYP2A6 [1]; coumarin substrate, mixed model inhibition) | NNK-induced tumors (NNK-induced tumors) [%]
1 | Cc1cccc(Cl)c1CN1CCOCC1 [Compound 9, 4-(2-chloro-6-methylbenzyl)morpholine] | 296 | 15 | 19.7 ± 1.2 | > 400 | 1.1 | I | 468 | 515 | I |  |  |  |  |  | 
2 | Clc1cccc(CN2CCOCC2)c1Cl [Compound 12, 4-(2,3-dichlorobenzyl)morpholine] | 836 | ~9 | 88.9 | ≥ 9.9 | 30.8 ± 8.1 | I |  | ≥ 305 | I | 9.4 |  |  |  |  | 
3 | Clc1ccc(CN2CCOCC2)c(Cl)c1 [Compound 13, 4-(2,4-dichlorobenzyl)morpholine] | 995 | ~9 | 113 ± 14 | ≥ 5.8 | 34.2 | I |  | ≥ 198 | I | 8.9 |  |  |  |  | 
4 | Clc1ccccc1Cn1ccnc1 [Compound 16, 1-(2-chlorobenzyl)-1H-imidazole] | 2.9 | 1 | 2.8 | ≥ 1 | < 0.1 |  |  | 0.1 |  |  | purely competitive inhibitors | mixed inhibition; also recorded: mixed inhibitors | 3.9 |  | 
5 | Clc1cccc(Cl)c1Cn1ccnc1 [Compound 17, 1-(2,6-dichlorobenzyl)-1H-imidazole] | 0.9 | 0.4 | 2.1 | ≥ 9 | < 0.1 |  |  | 0.9 |  |  | purely competitive inhibitors | mixed inhibition; also recorded: mixed inhibitors | 2.0 |  | 
6 | Clc1ccccc1CN1CCSCC1 [Compound 18, 4-(2-chlorobenzyl)thiomorpholine] | 483 | 8 | 59 | 18 | 8.3 ± 4.1 | I | 18.6 |  |  | 8.2 | mixed inhibition |  |  | 3.1 | 
7 | c1csc(CN2CCOCC2)c1 [Compound 19, 4-(thiophen-2-ylmethyl)morpholine] | 270 | 2.1 | 131 | ≥ 15.1 | 30.8 | I |  | ≥ 464 | I |  |  |  |  |  | 
8 | Clc1ccsc1CN1CCOCC1 [Compound 20, 4-((3-chlorothiophen-2-yl)methyl)morpholine] | 433 | 7.9 | 54.7 | ≥ 22.3 | 10.7 | I |  | ≥ 239 | I |  |  |  |  |  | 
9 | CC(c1ccccc1Cl)N1CCOCC1 (centres unmarked) [Compound 23, 4-(1-(2-chlorophenyl)ethyl)morpholine] | 98.5 | 6.2 | 15.9 | ≥ 70.8 | 7.6 ± 2.8 | I |  | ≥ 538 | I |  |  |  |  |  | 
10 | S=C=NCCc1ccccc1 [PEITC, phenethyl isothiocyanate] |  |  |  |  |  |  |  |  |  |  |  |  |  |  | 5
